Measurements taken from US8846719B2, “Isoxazolo-pyridine derivatives” (Roche Palo Alto LLC, priority 2007, dated 2014).
Read-outs that look alike come from different tables or passages of the source.

Target: human GABA A receptor α5β3γ2 (Homo sapiens (Human), UniProt P18507+P31644)
Assay: [3H]flumazenil competition binding assay, human GABA A α5β3γ2 receptors expressed in HEK293 cells
Protocol: The affinity of compounds at GABA A receptor subtypes was measured by competition for [3H]flumazenil (85 Ci/mmol; Roche) binding to HEK293 cells expressing rat (stably transfected) or human (transiently transfected) receptors of composition α1β3γ2, α2β3γ2, α3β3γ2 and α5β3γ2.
Cell pellets were suspended in Krebs-tris buffer (4.8 mM KCl, 1.2 mM CaCl2, 1.2 mM MgCl2, 120 mM NaCl, 15 mM Tris; pH 7.5; binding assay buffer), homogenized by polytron for ca. 20 sec on ice and centrifuged for 60 min at 4° C. (50000 g; Sorvall, rotor: SM24=20000 rpm). The cell pellets were resuspended in Krebs-tris buffer and homogenized by polytron for ca. 15 sec on ice. Protein was measured (Bradford method, Bio-Rad) and aliquots of 1 mL were prepared and stored at −80° C.
Assays were incubated to equilibrium for 1 hour at 4° C. and harvested onto GF/C uni-filters (Packard) by filtration using a Packard harvester and washing with ice-cold wash buffer (50 mM Tris; pH 7.5). After drying, filter-retained radioactivity was detected by liquid scintillation counting. Ki values were calculated using Excel-Fit (Microsoft) and are the means of two determinations.

[1] = human receptor, displacement of [3H]flumazenil (0.5 nM), means of two determinations, read-out: hKi GABAAa5

Row | Compound | Ki [1] | Ki
1 | Cc1onc(-c2ccccc2)c1COc1cc(C(F)(F)F)c(C(=O)NC2CCOCC2)cn1 [Example 63, 6-(5-Methyl-3-phenyl-isoxazol-4-ylmethoxy)-N-(tetrahydro-pyran-4-yl)-4-trifluoromethyl-nicotinamide] | 10.7 nM | –
2 | Cc1onc(-c2ccccc2)c1COc1ccc(C(=O)NCCF)cn1 [Example 10, N-(2-Fluoro-ethyl)-6-(5-methyl-3-phenyl-isoxazol-4-ylmethoxy)-nicotinamide] | 4.4 nM | –
3 | O=C(N[C@H]1CCC[C@@H]1O)c1ccc(OCc2conc2-c2ccc(F)cc2)nc1 [Example 331, 6-[3-(4-Fluoro-phenyl)-isoxazol-4-ylmethoxy]-N-((1S,2S)-2-hydroxy-cyclopentyl)-nicotinamide] | 17.8 nM | –
4 | Cc1onc(-c2ccccc2)c1COc1ccc(C(=O)N2CCC[C@H]2CO)cn1 [Example 224] | 41.9 nM | –
5 | Cc1onc(-c2ccccn2)c1COc1ccc(C(=O)NCCO)cn1 [Example 284, (2-Hydroxy-ethyl)-6-(5-methyl-3-pyridin-2-yl-isoxazol-4-ylmethoxy)-nicotinamide] | 0.5 nM | –
6 | CCCCS(=O)(=O)NC(=O)c1ccc(OCc2c(-c3ccccc3)noc2C)nc1 [Example 233, Butane-1-sulfonic acid [6-(5-methyl-3-phenyl-isoxazol-4-ylmethoxy)-pyridine-3-carbonyl]-amide] | 32.2 nM | –
7 | CCNC(=O)c1ccc(OCc2conc2-c2ccccn2)nc1 [Example 364, N-Ethyl-6-(3-pyridin-2-yl-isoxazol-4-ylmethoxy)-nicotinamide] | 13.6 nM | –
8 | Cc1onc(-c2ccccc2)c1COc1ccc([N+](=O)[O-])cn1 [Example 6, 2-(5-Methyl-3-phenyl-isoxazol-4-ylmethoxy)-5-nitro-pyridine] | 22.2 nM | –
9 | COC(=O)c1ccc(NCc2c(-c3cccc(F)c3)noc2C)nc1 [Example 167, 6-{[3-(3-Fluoro-phenyl)-5-methyl-isoxazol-4-ylmethyl]-amino}-nicotinic acid methyl ester] | 69.3 nM | –
10 | Cc1onc(-c2ccccc2)c1CNc1ccc(C(=O)NCCO)cn1 [Example 162, N-(2-Hydroxy-ethyl)-6-[(5-methyl-3-phenyl-isoxazol-4-ylmethyl)-amino]-nicotinamide] | 10.4 nM | –
11 | Cc1onc(-c2ccccc2)c1COc1ccc(C(=O)NC(CO)CO)cn1 [Example 201, N-(2-Hydroxy-1-hydroxymethyl-ethyl)-6-(5-methyl-3-phenyl-isoxazol-4-ylmethoxy)-nicotinamide] | 1.7 nM | –
12 | Cc1onc(-c2ccc(Cl)cn2)c1COc1ccc(C(=O)NC(C)C)cn1 [Example 302, 6-[3-(5-Chloro-pyridin-2-yl)-5-methyl-isoxazol-4-ylmethoxy]-isopropyl-nicotinamide] | 0.3 nM | –
13 | Cc1onc(-c2ccccc2)c1COc1ccc(C(=O)NCc2nc(C3CC3)no2)cn1 [Example 19, N-(3-Cyclopropyl-[1,2,4]oxadiazol-5-ylmethyl)-6-(5-methyl-3-phenyl-isoxazol-4-ylmethoxy)-nicotinamide] | 13.1 nM | –
14 | Cc1onc(-c2ccc(F)cc2)c1COc1ccc(C(=O)N2C[C@H]3C[C@@H](C2)O3)cn1 [Example 114, {6-[3-(4-Fluoro-phenyl)-5-methyl-isoxazol-4-ylmethoxy]-pyridin-3-yl}-(1R,5S)-6-oxa-3-aza-bicyclo [3.1.1]hept-3-yl-methanone] | – | 42.6 nM
15 | CC(C)(CO)CNC(=O)c1ccc(OCc2conc2-c2ccc(Cl)cc2)nc1 [Example 350, 6-[3-(4-Chloro-phenyl)-isoxazol-4-ylmethoxy]-N-(3-hydroxy-2,2-dimethyl-propyl)-nicotinamide] | 22.9 nM | –
16 | CC(C)(C)OC(=O)N1CC(NC(=O)c2ccc(OCc3conc3-c3ccc(Cl)cc3)nc2)C1 [Example 351, 3-({6-[3-(4-Chloro-phenyl)-isoxazol-4-ylmethoxy]-pyridine-3-carbonyl}-amino)-azetidine-1-carboxylic acid tert-butyl ester] | 55.5 nM | –
17 | CCOC(=O)C(C)NC(=O)c1ccc(OCc2c(-c3ccccc3)noc2C)nc1 (stereo not shown) [Example 25, 2-{[6-(5-Methyl-3-phenyl-isoxazol-4-ylmethoxy)-pyridine-3-carbonyl]-amino}-propionic acid ethyl ester] | 20.2 nM | –
18 | Cc1onc(-c2ccccc2)c1COc1ccc(C(=O)N(C)C2CCOCC2)cn1 [Example 50, N-Methyl-6-(5-methyl-3-phenyl-isoxazol-4-ylmethoxy)-N-(tetrahydro-pyran-4-yl)-nicotinamide] | 20.2 nM | –
19 | Cc1onc(-c2ccccc2)c1COc1ccc(C(=O)NC(C)(C)C)cn1 [Example 47, N-tert-Butyl-6-(5-methyl-3-phenyl-isoxazol-4-ylmethoxy)-nicotinamide] | 11.8 nM | –
20 | Cc1onc(-c2ccccc2)c1COc1ccc(C(=O)NC2CC2)cn1 [Example 27, N-Cyclopropyl-6-(5-methyl-3-phenyl-isoxazol-4-ylmethoxy)-nicotinamide] | 2.7 nM | –
21 | Cc1onc(-c2ccncc2)c1COc1ccc(C(=O)N2CCSCC2)cn1 [Example 152, [6-(5-Methyl-3-pyridin-4-yl-isoxazol-4-ylmethoxy)-pyridin-3-yl]-thiomorpholin-4-yl-methanone] | 39.7 nM | –
22 | Cc1onc(-c2ccccc2)c1COc1ccc(NC(=O)C2CC2)cn1 [Example 182, Cyclopropanecarboxylic acid [6-(5-methyl-3-phenyl-isoxazol-4-ylmethoxy)-pyridin-3-yl]-amide] | 10.1 nM | –

More lines, in order of falling Ki [1], values ahead:

Row | Ki [1] | Compound | Ki
23 | 9.3 nM | Cc1onc(-c2ccccc2)c1COc1ccc(C(=O)NC2CCCN(CC(=O)O)C2)cn1 (stereo not shown) [Example 41, (3-{[6-(5-Methyl-3-phenyl-isoxazol-4-ylmethoxy)-pyridine-3-carbonyl]-amino}-piperidin-1-yl)-acetic acid] | –
24 | 8.4 nM | Cc1onc(-c2ccccc2)c1COc1ccc(C(=O)NC2CCCN(CC(=O)NCCO)C2)cn1 (stereo not shown) [Example 45, N-{1-[(2-Hydroxy-ethylcarbamoyl)-methyl]-piperidin-3-yl}-6-(5-methyl-3-phenyl-isoxazol-4-ylmethoxy)-nicotinamide] | –
25 | 7.7 nM | CCC(CC)CNC(=O)c1ccc(OCc2c(-c3ccccc3)noc2C)nc1 [Example 17, N-(2-Ethyl-butyl)-6-(5-methyl-3-phenyl-isoxazol-4-ylmethoxy)-nicotinamide] | –
26 | 7.3 nM | Cc1onc(-c2ccccc2)c1COc1ccc(C(=O)NC2CCN(Cc3ccccc3)CC2)cn1 [Example 37, N-(1-Benzyl-piperidin-4-yl)-6-(5-methyl-3-phenyl-isoxazol-4-ylmethoxy)-nicotinamide] | –
27 | 5.2 nM | Cc1onc(-c2cccc(F)c2F)c1COc1ccc(C(=O)NC2CCOCC2)cn1 [Example 262, 6-[3-(2,3-Difluoro-phenyl)-5-methyl-isoxazol-4-ylmethoxy]-N-(tetrahydro-pyran-4-yl)-nicotinamide] | –
28 | 5.1 nM | Cc1onc(-c2ccccc2)c1COc1ccc(C(=O)Nc2ccn(C)n2)cn1 [Example 244, 6-(5-Methyl-3-phenyl-isoxazol-4-ylmethoxy)-N-(1-methyl-1H-pyrazol-3-yl)-nicotinamide] | –
29 | 4.6 nM | Cc1onc(-c2ccccc2)c1COc1ccc(C(=O)NCC2CCOC2)cn1 (stereo not shown) [Example 77, 6-(5-Methyl-3-phenyl-isoxazol-4-ylmethoxy)-N-(tetrahydro-furan-3-ylmethyl)-nicotinamide] | –
30 | 4.3 nM | CNC(=O)c1ccc(OCc2c(-c3ccccc3)noc2C)nc1 [Example 8, N-Methyl-6-(5-methyl-3-phenyl-isoxazol-4-ylmethoxy)-nicotinamide] | –
31 | 3.9 nM | Cc1onc(-c2ccccc2)c1COc1ccc(C(=O)NCC2CC2)cn1 [Example 16, N-Cyclopropylmethyl-6-(5-methyl-3-phenyl-isoxazol-4-ylmethoxy)-nicotinamide] | –
32 | 3.9 nM | Cc1onc(-c2ccccc2)c1COc1ccc(C(=O)NC2CCCC2O)cn1 (stereo not shown) [Example 200, N-(2-Hydroxy-cyclopentyl)-6-(5-methyl-3-phenyl-isoxazol-4-ylmethoxy)-nicotinamide] | –
33 | 3 nM | Cc1onc(-c2cccc(F)c2)c1COc1ccc(C(=O)NCC(F)(F)F)cn1 [Example 89, 6-[3-(3-Fluoro-phenyl)-5-methyl-isoxazol-4-ylmethoxy]-N-(2,2,2-trifluoro-ethyl)-nicotinamide] | –
34 | 2.7 nM | Cc1onc(-c2ccccc2)c1COc1ccc(C(=O)N[C@H]2CCC[C@H]2O)cn1 (single isomer, unassigned) [Example 211, N-((1S,2R)-2-Hydroxy-cyclopentyl)-6-(5-methyl-3-phenyl-isoxazol-4-ylmethoxy)-nicotinamide or N-((1R,2S)-2-hydroxy-cyclopentyl)-6-(5-methyl-3-phenyl-isoxazol-4-ylmethoxy)-nicotinamide] | –
35 | 2.1 nM | Cc1onc(-c2ccccc2)c1COc1ccc(C(=O)NC2CCOCC2)cn1 [Example 31, 6-(5-Methyl-3-phenyl-isoxazol-4-ylmethoxy)-N-(tetrahydro-pyran-4-yl)-nicotinamide] | –
36 | 1.3 nM | Cc1onc(-c2ccc(Cl)cc2)c1COc1ccc(C(=O)N[C@@H](C)C(F)(F)F)cn1 [Example 258, 6-[3-(4-Chloro-phenyl)-5-methyl-isoxazol-4-ylmethoxy]-N—((S)-2,2,2-trifluoro-1-methyl-ethyl)-nicotinamide] | –
37 | 0.7 nM | CC[C@@H](CO)NC(=O)c1ccc(OCc2c(-c3ccccc3)noc2C)nc1 [Example 208, N—((S)-1-Hydroxymethyl-propyl)-6-(5-methyl-3-phenyl-isoxazol-4-ylmethoxy)-nicotinamide] | –
